Source: the NIST ThermoML archive (doi:10.1021/je400968v)

Assay: mn = molality of the nth substance listed, in mol/kg
Details: 101 kPa, Liquid; for viscosity: Capillary tube (Ostwald / Ubbelohde) method; for mass density: Vibrating tube method

Cc1c(N)cccc1N [2,6-diaminotoluene] + CCO
Details	mass density, 293.15 K [kg/m3]	mass density, 303.15 K [kg/m3]	mass density, 313.15 K [kg/m3]	mass density, 323.15 K [kg/m3]	mass density, 333.15 K [kg/m3]	viscosity, 293.15 K [mPa·s]	viscosity, 303.15 K [mPa·s]	viscosity, 313.15 K [mPa·s]	viscosity, 323.15 K [mPa·s]	viscosity, 333.15 K [mPa·s]
m1 = 0.0503	791.34	782.75	773.98	765.05	755.93	1.193	0.983	0.814	0.68	0.569
m1 = 0.1002	793.1	784.49	775.72	766.78	757.66	1.206	0.991	0.823	0.686	0.573
m1 = 0.1497	794.82	786.2	777.43	768.49	759.36	1.221	1.002	0.829	0.69	0.578
m1 = 0.1996	796.54	787.9	779.12	770.18	761.05	1.233	1.011	0.835	0.696	0.582
m1 = 0.2496	798.23	789.59	780.81	771.86	762.72	1.245	1.021	0.843	0.7	0.586
m1 = 0.2997	799.92	791.26	782.49	773.53	764.4	1.258	1.03	0.849	0.707	0.591
m1 = 0.3496	801.55	792.9	784.13	775.18	766.04	1.272	1.04	0.857	0.711	0.595
m1 = 0.3995	803.2	794.53	785.77	776.81	767.67	1.286	1.05	0.864	0.718	0.6
m1 = 0.4497	804.84	796.16	787.4	778.43	769.3	1.3	1.061	0.872	0.723	0.604
m1 = 0.4995	806.45	797.75	789	780.03	770.89	1.313	1.07	0.879	0.731	0.609
m1 = 0.5495	808.02	799.33	790.56	781.61	772.46	1.328	1.08	0.888	0.736	0.613
m1 = 0.5995	809.61	800.9	792.14	783.18	774.03	1.342	1.09	0.895	0.742	0.618
m1 = 0.6492	811.1	802.44	793.67	784.72	775.55	1.357	1.102	0.903	0.746	0.622
m1 = 0.6984	812.63	803.98	795.19	786.23	777.07	1.372	1.112	0.91	0.753	0.626
m1 = 0.7488	814.15	805.51	796.73	787.77	778.61	1.389	1.124	0.919	0.758	0.631
m1 = 0.7991	815.68	807.02	798.25	789.3	780.13	1.408	1.134	0.926	0.762	0.636
